Experimental data reported in PubChem BioAssay (NCI).
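Assay format: 96-well plates, 48-hour exposure. TGI is the concentration that stops growth completely.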

Tests used:
Test in all cases: NCI tumour cell line growth inhibition, 48 h
SK-MEL-28 melanoma = tested on: SK-MEL-28 melanoma
LOX IMVI melanoma = tested on: LOX IMVI melanoma
CAKI-1 renal = tested on: CAKI-1 renal
SNB-75 CNS = tested on: SNB-75 CNS
K-562 leukemia = tested on: K-562 leukemia
EKVX NSCLC = tested on: EKVX NSCLC
HOP-92 NSCLC = tested on: HOP-92 NSCLC
OVCAR-3 ovarian = tested on: OVCAR-3 ovarian
COLO 205 colon = tested on: COLO 205 colon
HT29 colon = tested on: HT29 colon
NCI-H23 lung = tested on: NCI-H23 lung
M19-MEL melanoma = tested on: M19-MEL melanoma
NCI-H522 lung = tested on: NCI-H522 lung
A549 NSCLC = tested on: A549 NSCLC
SK-MEL-2 melanoma = tested on: SK-MEL-2 melanoma
NCI/ADR-RES ovarian = tested on: NCI/ADR-RES ovarian
DMS 273 small cell lung = tested on: DMS 273 small cell lung
UACC-257 melanoma = tested on: UACC-257 melanoma
UO-31 renal = tested on: UO-31 renal
CCRF-CEM leukemia = tested on: CCRF-CEM leukemia
HOP-18 NSCLC = tested on: HOP-18 NSCLC
UACC-62 melanoma = tested on: UACC-62 melanoma
P388 leukemia = tested on: P388 leukemia
SF-539 CNS = tested on: SF-539 CNS
HCT-15 colon = tested on: HCT-15 colon
HL-60(TB) leukemia = tested on: HL-60(TB) leukemia
OVCAR-5 ovarian = tested on: OVCAR-5 ovarian
OVCAR-8 ovarian = tested on: OVCAR-8 ovarian
P388/ADR leukemia = tested on: P388/ADR leukemia
NCI-H226 lung = tested on: NCI-H226 lung
SF-268 CNS = tested on: SF-268 CNS
MALME-3M melanoma = tested on: MALME-3M melanoma
SNB-78 CNS = tested on: SNB-78 CNS
U251 CNS = tested on: U251 CNS
SN12K1 renal = tested on: SN12K1 renal
HCT-116 colon = tested on: HCT-116 colon
MOLT-4 leukemia = tested on: MOLT-4 leukemia
RXF 393 renal = tested on: RXF 393 renal
OVCAR-4 ovarian = tested on: OVCAR-4 ovarian
SK-MEL-5 melanoma = tested on: SK-MEL-5 melanoma
HCC-2998 colon = tested on: HCC-2998 colon
MCF7 breast = tested on: MCF7 breast
IGROV1 ovarian = tested on: IGROV1 ovarian
SF-295 CNS = tested on: SF-295 CNS
DMS 114 small cell lung = tested on: DMS 114 small cell lung
RPMI-8226 leukemia = tested on: RPMI-8226 leukemia
XF 498 CNS = tested on: XF 498 CNS
DLD-1 colon = tested on: DLD-1 colon
HOP-62 NSCLC = tested on: HOP-62 NSCLC
A498 renal = tested on: A498 renal
NCI-H460 lung = tested on: NCI-H460 lung
SW-620 colon = tested on: SW-620 colon
SN12C renal = tested on: SN12C renal
KM20L2 colon = tested on: KM20L2 colon
SNB-19 CNS = tested on: SNB-19 CNS
SK-OV-3 ovarian = tested on: SK-OV-3 ovarian
KM12 colon = tested on: KM12 colon

With O=C1NC(c2cccc3ccccc23)Nc2ccc(O)cc21 (stereo not drawn) the TGI (SK-MEL-28 melanoma) was > 150 µM, the TGI (LOX IMVI melanoma) was > 75.7 µM and the TGI (CAKI-1 renal) was > 144 µM. The TGI (SNB-75 CNS) was 106 µM, the TGI (K-562 leukemia) was > 94.6 µM and the TGI (EKVX NSCLC) was 128 µM. The TGI (HOP-92 NSCLC) was 98.9 µM, the TGI (OVCAR-3 ovarian) was 58.5 µM and the TGI (COLO 205 colon) was 67.4 µM. The TGI (HT29 colon) was 121 µM, the TGI (NCI-H23 lung) was > 132 µM and the TGI (M19-MEL melanoma) was 127 µM. The TGI (NCI-H522 lung) was 92.3 µM, the TGI (A549 NSCLC) was > 139 µM and the TGI (SK-MEL-2 melanoma) was 57.3 µM. The TGI (NCI/ADR-RES ovarian) was 94.2 µM, the TGI (DMS 273 small cell lung) was 64.5 µM and the TGI (UACC-257 melanoma) was > 84.4 µM. It also gave a TGI (UO-31 renal) of 78.5 µM, a TGI (CCRF-CEM leukemia) of 111 µM and a TGI (HOP-18 NSCLC) of 131 µM. For the same compound, the TGI (UACC-62 melanoma) was 78.5 µM, the TGI (P388 leukemia) was 50.6 µM and the TGI (SF-539 CNS) was 91.6 µM. For the same compound, the TGI (HCT-15 colon) was 78.3 µM, the TGI (HL-60(TB) leukemia) was 35 µM and the TGI (OVCAR-5 ovarian) was 101 µM. It also gave a TGI (OVCAR-8 ovarian) of 111 µM, a TGI (P388/ADR leukemia) of 83.6 µM and a TGI (NCI-H226 lung) of 60 µM. The TGI (SF-268 CNS) was > 150 µM, the TGI (MALME-3M melanoma) was 69.5 µM and the TGI (SNB-78 CNS) was > 150 µM. The TGI (U251 CNS) was > 141 µM, the TGI (SN12K1 renal) was 112 µM and the TGI (HCT-116 colon) was 122 µM. For the same compound, the TGI (MOLT-4 leukemia) was 75.5 µM, the TGI (RXF 393 renal) was 91.9 µM and the TGI (OVCAR-4 ovarian) was > 150 µM. It also gave a TGI (SK-MEL-5 melanoma) of 80.8 µM, a TGI (HCC-2998 colon) of 88.5 µM and a TGI (MCF7 breast) of 102 µM. The TGI (IGROV1 ovarian) was 95.7 µM, the TGI (SF-295 CNS) was 104 µM and the TGI (DMS 114 small cell lung) was 67.1 µM. It also gave a TGI (RPMI-8226 leukemia) of 82.5 µM, a TGI (XF 498 CNS) of 59.2 µM and a TGI (DLD-1 colon) of 134 µM. It also gave a TGI (HOP-62 NSCLC) of 121 µM, a TGI (A498 renal) of 75.3 µM and a TGI (NCI-H460 lung) of 69.5 µM. The TGI (SW-620 colon) was > 127 µM, the TGI (SN12C renal) was 133 µM and the TGI (KM20L2 colon) was 113 µM. The TGI (SNB-19 CNS) was 150 µM, the TGI (SK-OV-3 ovarian) was 115 µM and the TGI (KM12 colon) was 83.9 µM.

Work on CCCCc1[nH]ccc2c(C)c3nc4ccccc4c3cc12 yielded a TGI (SK-MEL-28 melanoma) of 11.8 µM, a TGI (LOX IMVI melanoma) of 4.3 µM and a TGI (CAKI-1 renal) of 6.33 µM. It also gave a TGI (SNB-75 CNS) of 15.8 µM, a TGI (K-562 leukemia) of 5.98 µM and a TGI (EKVX NSCLC) of 13.6 µM. It also gave a TGI (HOP-92 NSCLC) of 12.4 µM, a TGI (OVCAR-3 ovarian) of 10.8 µM and a TGI (COLO 205 colon) of 3.39 µM. For the same compound, the TGI (HT29 colon) was 8.85 µM, the TGI (NCI-H23 lung) was 16 µM and the TGI (M19-MEL melanoma) was 10.9 µM. It also gave a TGI (NCI-H522 lung) of 6.75 µM, a TGI (A549 NSCLC) of 14.1 µM and a TGI (SK-MEL-2 melanoma) of 11.4 µM. The TGI (NCI/ADR-RES ovarian) was 5.87 µM, the TGI (DMS 273 small cell lung) was 2.4 µM and the TGI (UACC-257 melanoma) was 5.13 µM. It also gave a TGI (UO-31 renal) of 10.9 µM, a TGI (CCRF-CEM leukemia) of 10.6 µM and a TGI (HOP-18 NSCLC) of 6.83 µM. It also gave a TGI (UACC-62 melanoma) of 8.75 µM, a TGI (P388 leukemia) of 4.13 µM and a TGI (SF-539 CNS) of 7.45 µM. The TGI (HCT-15 colon) was 8.49 µM, the TGI (HL-60(TB) leukemia) was 3.45 µM and the TGI (OVCAR-5 ovarian) was 17.2 µM. For the same compound, the TGI (OVCAR-8 ovarian) was 9.49 µM, the TGI (P388/ADR leukemia) was 7.29 µM and the TGI (NCI-H226 lung) was 24.6 µM. For the same compound, the TGI (SF-268 CNS) was 21.6 µM, the TGI (MALME-3M melanoma) was 14.5 µM and the TGI (SNB-78 CNS) was 21.3 µM. For the same compound, the TGI (U251 CNS) was 12.8 µM, the TGI (SN12K1 renal) was 5.75 µM and the TGI (HCT-116 colon) was 4.76 µM. The TGI (MOLT-4 leukemia) was 4.72 µM, the TGI (RXF 393 renal) was 7.61 µM and the TGI (OVCAR-4 ovarian) was 13.5 µM. It also gave a TGI (SK-MEL-5 melanoma) of 6.52 µM, a TGI (HCC-2998 colon) of 8.19 µM and a TGI (MCF7 breast) of 10.8 µM. The TGI (IGROV1 ovarian) was 16.9 µM, the TGI (SF-295 CNS) was 8.41 µM and the TGI (DMS 114 small cell lung) was 4.14 µM. It also gave a TGI (RPMI-8226 leukemia) of 6.77 µM, a TGI (DLD-1 colon) of 13.3 µM and a TGI (HOP-62 NSCLC) of 14.5 µM. For the same compound, the TGI (A498 renal) was 13.4 µM, the TGI (NCI-H460 lung) was 5.03 µM and the TGI (SW-620 colon) was 6.78 µM. It also gave a TGI (SN12C renal) of 19.4 µM, a TGI (KM20L2 colon) of 10.8 µM and a TGI (SNB-19 CNS) of 11.6 µM. The TGI (SK-OV-3 ovarian) was 16.8 µM and the TGI (KM12 colon) was 12.7 µM.
